In PubChem BioAssay AID2305 (GlaxoSmithKline (GSK), 2010):

Test system: P. falciparum 3D7 growth, pLDH absorbance
Test: blood-stage malaria parasite growth potency – strain 3D7, dose response (AID 2305)

## CCCCC(=O)Nc1nonc1-c1ccc(OCC)c(OCC)c1
  IC50: 910 nM

## O=C(/C=C/c1ccc(Cl)c(Cl)c1)NC1CCC(CN2CCC(c3nc4ncccc4[nH]3)CC2)CC1 (configuration not stated)
  IC50: 1230 nM

## CC(C)c1cn2c3c(cc(C(=O)N[C@@H](Cc4ccccc4)[C@H](O)CNC4CCOCC4)cc13)N(C)S(=O)(=O)CC2
  IC50: 50 nM

## CC(=O)Nc1ncc(C(=O)Nc2cccc(-c3ccc(-c4nc5ccc(F)cc5[nH]4)cc3)c2)s1
  IC50: 620 nM

## CS(=O)(=O)c1ccc(-c2cncc(Nc3cccc([N+](=O)[O-])c3)c2)cc1
  IC50: 770 nM

## CNC(=O)c1ccccc1Nc1nc(Nc2ccc(N3CCN(C)CC3)nc2)ncc1C
  IC50: 1140 nM

## O=C(Nc1cccc(CN2CCCN(CC3CC3)CC2)c1)c1ccc(-c2ccccc2)cc1
  IC50: 930 nM

## O=C(Nc1cc(Cl)ccc1Cl)N[C@H]1CCN(CCCCCNC(=O)[C@@H]2C[C@H]2c2ccc(Cl)c(Cl)c2)C1
  IC50: 770 nM

## O=C(CNC1CCCCC1)c1ccc(O)c(O)c1
  IC50: 660 nM

## CCOc1ccc2c(NN=Cc3cc(OC)c(OC)cc3OC)cc(C)nc2c1
  IC50: 1000 nM

## Cc1cccc2[nH]c(-c3cccc(-c4ccc(CNCc5ccc(S(C)(=O)=O)cc5)cc4)c3)nc12
  IC50: 180 nM

## O=[N+]([O-])c1ccc2ncnc(Nc3ccc(F)c(Cl)c3)c2c1
  IC50: 710 nM

## CCN(CCCN1CCCCC1)c1cc(C)nc(Nc2cccc(OC(F)(F)F)c2)n1
  IC50: 230 nM

## CCc1cn(CCCOC)c2ccc(C(=O)N[C@@H](Cc3ccccc3)[C@H](O)CNCc3cccc(C(F)(F)F)c3)cc12
  IC50: 190 nM

## O=C(CCc1cnc[nH]1)Nc1cccc(-c2ccc(-c3nc4ccccc4[nH]3)s2)c1
  IC50: 760 nM

## Cc1cccc2[nH]c(-c3ccc(-c4cccc(CN5CCC(N)C5)c4)s3)nc12 (configuration not stated)
  IC50: 770 nM

## CC(C)NCc1ccc(-c2ccc(CN3CCCC(c4ccccc4)C3)cc2)c(C(=O)NCC2CCCCC2)c1 (configuration not stated)
  IC50: 720 nM

## O=C(NCCCN1CCC(NC(=O)c2ccc(-c3cccnc3)cc2)CC1)c1ccc(Cl)c(Cl)c1
  IC50: 850 nM

## O=C(c1cc2cccc([N+](=O)[O-])c2[nH]1)N1CCC(CCN2CCC(c3c[nH]c4ccccc34)CC2)CC1
  IC50: 940 nM

## C=CCc1cc(Cc2cnc(N)nc2N)cc(CCC)c1OC
  IC50: 1360 nM

## O=[N+]([O-])c1cccc(S(=O)(=O)N2CCN(CC(O)COc3ccc(-c4ccccc4)cc3)CC2)c1 (configuration not stated)
  IC50: 1360 nM

## CNC(=O)c1cncc(/C=C/c2ccccc2S(N)(=O)=O)c1
  IC50: 690 nM

## COc1ccc(NC(=O)Nc2ccc(-c3cccc(-c4nc5c(C)cccc5[nH]4)c3)cc2)cc1
  IC50: 140 nM

## CC(=O)C=C1CC(=O)N(C[C@@H](O)[C@H]2O[C@@H]3OC(C)(C)O[C@@H]3[C@H]2O)c2ccccc2N1
  IC50: 1260 nM

## CCOc1cc(C(=O)NC2CCN(Cc3ccccc3)CC2)ccc1-c1nc2cc(Cl)c(F)cc2[nH]1
  IC50: 800 nM

## C#C[C@H]1O[C@@H](n2cnc3c(Nc4cc(Br)cc(C(F)(F)F)c4)ncnc32)[C@H](O)[C@@H]1O
  IC50: 1030 nM

## CC(=O)c1cccc(NC(=O)N2CCCN(CCCCCNC(=O)/C=C/c3ccc(Cl)c(Cl)c3)CC2)c1
  IC50: 1010 nM

## Cc1cccc2[nH]c(-c3ccc(-c4ccc(CNCC(C)C)cc4)cc3)nc12
  IC50: 410 nM

## CCOc1ccc(-c2nonc2NC(=O)c2ccccc2)cc1OCC
  IC50: 260 nM

## COc1ccc(Nc2ncc(C#N)c(Nc3ccccc3C(N)=O)n2)cc1N1CCN(C)CC1
  IC50: 140 nM

## CSc1cccc(Nc2nc3ccc(S(=O)(=O)NC(C)C(C)C)cc3n2[C@H](C)C(C)(C)C)c1 (some centres not stated)
  IC50: 450 nM

## CCn1c(Cc2ccccc2)nnc1SCC(=O)N1c2ccccc2Sc2ccccc21
  IC50: 590 nM

## N#Cc1ccc2c(c1)CCN(CCC1CCC(NC(=O)c3cc4cccc([N+](=O)[O-])c4[nH]3)CC1)C2 (configuration not stated)
  IC50: 680 nM

## Cc1cc(NN=Cc2ccccc2Cl)c2cc(C(F)(F)F)ccc2n1
  IC50: 860 nM

## Cc1[nH]c(C)c(-c2ccc(Oc3ccc(Cl)cc3)cc2)c(=O)c1I
  IC50: 960 nM

## CCCCn1c(C)c(C(=O)OCC)c2cc(OC(C)=O)c(Br)cc21
  IC50: 630 nM

## COc1ccc(CNc2nc(Nc3cccc(C#N)c3)nc(Nc3cccc(C#N)c3)n2)cc1Cl
  IC50: 180 nM

## COc1ccc(C2CC(=O)C3=C(C2)NC(C)=C(C(=O)OC2CCCC2)C3c2cccc(O)c2)cc1OC (configuration not stated)
  IC50: 220 nM

## O=C(N[C@@H](Cc1ccccc1)C(=O)NCc1cccc2ccccc12)c1ccc(O)c(-c2ccc(Cl)c(Cl)c2)c1
  IC50: 240 nM

## Cc1ccc(NC(=O)c2cc([N+](=O)[O-])ccc2NCc2cccnc2)cc1Cl
  IC50: 1120 nM

## O=C(Nc1cc(Cl)ccc1O)c1cc(-c2ccccc2O)no1
  IC50: 1090 nM

## CC1(C)C(N(O)C(=O)Nc2ccc(Cl)c(Cl)c2)N(c2ccc(Cl)c(Cl)c2)C(=O)N1CCc1ccccc1 (configuration not stated)
  IC50: 820 nM

## CC1=CC(=O)[C@@H](O)[C@]2(C)[C@H]3[C@@]4(O)OC[C@@]35[C@@H](C[C@@H]12)OC(=O)C[C@H]5[C@@H](C)[C@H]4O
  IC50: 350 nM

## Cc1cc(C(=O)CSc2nc3ccccc3n2-c2ccccc2)c(C)n1C1CCS(=O)(=O)C1 (configuration not stated)
  IC50: 1000 nM

## O=C(/C=C/c1ccc2ccccc2c1)NCCCCCN1CCC(c2c[nH]c3ccccc23)CC1
  IC50: 1230 nM

## c1cc(CNC2Cc3ccccc3C2)cc(-c2cnc(N3CCNCC3)nc2)c1
  IC50: 940 nM

## CNc1ccc(CNCc2ccc(-c3ccc(-c4nc5ccc(C(F)(F)F)cc5[nH]4)s3)cc2)cc1
  IC50: 180 nM

## O=C(NC1CCC(CN2CCC(c3c[nH]c4ccccc34)CC2)CC1)c1csc(-c2cccc(Cl)c2Cl)n1 (configuration not stated)
  IC50: 1730 nM

## Cn1cncc1C(=O)Nc1cccc(-c2cccc(-c3nc4ccccc4[nH]3)c2)c1
  IC50: 640 nM

## COc1ccc(Cc2c(C)nc3nc(N)nc(N)c3c2C)cc1
  IC50: 280 nM

## COc1ccc(CNc2ncnc3c2[nH]c2ccc(F)cc23)cc1
  IC50: 980 nM

## CC[C@H]1CN2CC[C@@H]1C[C@H]2[C@H](O)c1cc(N2CCCC(C)(C)C2)nc2ccc(OC)cc12
  IC50: 340 nM

## Cc1cccc2[nH]c(-c3cccc(-c4ccc(NC(=O)CN5CCOCC5)cc4)c3)nc12
  IC50: 1050 nM

## CCN1CCN(c2cc(C)c3cc(NC(=O)c4cccc(OC)c4)ccc3n2)CC1
  IC50: 800 nM

## c1ccc(CNCc2ccc(-c3ccc(-c4nc5ccccc5[nH]4)cc3)cc2)cc1
  IC50: 340 nM

## OC1CCCN(Cc2ccc(-c3ccc(-c4nc5ccc(F)cc5[nH]4)s3)cc2)C1 (configuration not stated)
  IC50: 850 nM

## N#Cc1cccc(-c2cccc(C(=O)NC3CCC(CCN4CCc5ccc(C#N)cc5CC4)CC3)c2)c1 (configuration not stated)
  IC50: 260 nM

## [O-]c1n[n+](C2CCCCC2)no1
  IC50: 930 nM

## Cc1cccn2c(=O)c3cc(C(=O)NC4CCCCC4)c(=N)n(CCCn4ccnc4)c3nc12
  IC50: 750 nM

## c1ccc(C(OCCC2CCN(Cc3cccc4cccnc34)CC2)c2ccccc2)cc1
  IC50: 870 nM

## CS(=O)(=O)CCNCc1nc(-c2ccc3c(Nc4ccc(Cl)cc4F)ccnc3c2)cs1
  IC50: 1080 nM

## CN(CCc1ccccc1)c1ncc(-c2cccc(CNCCC3CCCN3C)c2)cn1 (configuration not stated)
  IC50: 870 nM

## CN(Cc1cccc(O)c1)C1CCN(c2cc(NC(=O)c3cccc(F)c3)ccn2)CC1
  IC50: 850 nM

## c1ccc2c(NCCCCCCCNc3ccnc4ccccc34)ccnc2c1
  IC50: 170 nM

## COc1ccc2nccc([C@@H](O)CN3CCC(NCc4cc5ccccc5o4)CC3)c2c1
  IC50: 660 nM

## CCc1c(CCNCC/C=C/CCNCCc2ccc(OC)c(OC)c2CC)ccc(OC)c1OC
  IC50: 770 nM

## CC(C)(CNCCOc1ccc(Cl)cc1)c1nc(-c2ccc(Cl)c(O)c2)c(-c2ccnc(N)n2)[nH]1
  IC50: 830 nM

## COc1ccc(-c2nc(NC(=O)Cc3ccc4c(c3)OCCO4)sc2C)cc1
  IC50: 240 nM

## CCCOc1cc(OCCC)cc(-c2ccc(C(=O)Nc3ccc4ccc(C)nc4c3)c(=O)[nH]2)c1
  IC50: 750 nM

## COc1cc2sc(=NC(=O)c3cccc([N+](=O)[O-])c3)n(C)c2cc1OC
  IC50: 720 nM

## COc1cc(Nc2ccnc3cc(-c4ccncc4)ccc23)cc(OC)c1OC
  IC50: 1080 nM

## CC(=O)C1=NN(c2ccc(C)cc2)C(c2cccs2)N1c1ccccc1 (configuration not stated)
  IC50: 340 nM

## CCC(C)c1ccc(NC(=O)Nc2ccnc3ccccc23)cc1 (configuration not stated)
  IC50: 630 nM

## CC(C)OC(=O)c1ccccc1S(N)(=O)=O
  IC50: 670 nM

## CCN(CC)CCN(Cc1ccc(-c2ccc(C(F)(F)F)cc2)cc1)C(=O)Cn1c(SCc2ccc(F)cc2)nc(=O)c2ccccc21
  IC50: 770 nM

## CCCCCCn1c(Sc2ccc(C#N)c([N+](=O)[O-])c2)nnc1-c1ccccc1
  IC50: 770 nM

## Nc1ncc(-c2ccc(F)cc2)cc1-c1nc2ccc(Cl)cc2[nH]1
  IC50: 750 nM

## O=C(Nc1ccc2c(c1)CCN2C1CCN(Cc2cccc(C(F)(F)F)c2)C1)c1ccco1 (configuration not stated)
  IC50: 560 nM

## CCCCOc1c(CCNCCCCNCCc2cc(F)c3ccccc3c2OCCCC)cc(F)c2ccccc12
  IC50: 630 nM

## COc1ccc(-c2cccc(NC(=O)c3cccc(Cl)c3)c2)cc1CN(C)CCN(C)C
  IC50: 810 nM

## Brc1ccc(Nc2nc(NCC3CCCO3)c3ccccc3n2)cc1 (configuration not stated)
  IC50: 580 nM

## Cc1cc(CNC(=O)[C@H](CC2CCCCC2)Nc2ccc(C#N)c3ccccc23)c(C(F)(F)F)o1
  IC50: 1180 nM

## NC(N)=Nc1nc(-c2cccc(NCCCCCCCCON3C(N)=NC(N)=NC34CCCCC4)c2)cs1
  IC50: 230 nM

## Cc1cccc2[nH]c(-c3cccc(-c4cccc(NC(=O)NCc5cccc(F)c5)c4)c3)nc12
  IC50: 450 nM

## Cc1cc(C2CCN(CCCCNC(=O)c3ccc(-c4ccc(C(F)(F)F)cc4)cc3)CC2)c(C)cc1OCC(N)=O
  IC50: 800 nM

## COc1cc2c(cc1C=CC(=O)N1CCN(Cc3nc4sc(C)c(C)c4c(=O)[nH]3)CC1)OC(C)C2 (configuration not stated)
  IC50: 1020 nM

## CCCN1CCN(c2cc(S(=O)(=O)Nc3ccc(C(=O)NCc4cccc(C(F)(F)F)c4)cc3)ccc2OC)CC1
  IC50: 1010 nM

## Cc1csc2nc(-c3ccccn3)nc(Nc3ccc4ncsc4c3)c12
  IC50: 1110 nM

## Clc1cc(Cl)c2cc(CN[C@H]3CCC[C@@H]3CNc3nc4ccccc4[nH]3)[nH]c2c1
  IC50: 270 nM

## COc1ccc(-c2ccc(NC(=O)c3ccc(C#N)cc3)cc2)cc1CN1CCN(C)CC1
  IC50: 720 nM

## COc1ccc2c(NN=Cc3cccc(F)c3)cc(C)nc2c1
  IC50: 780 nM

## Cc1nc(-c2cccc(C(F)(F)F)c2)n2nc(Nc3ccc(OCCN4CCCC4)cc3)ncc12
  IC50: 750 nM

## COc1cc2c(cc1OC)CN(c1cc(N)c3cc(OC)c(OC)cc3n1)CC2
  IC50: 550 nM

## CC(C)Nc1cc(C(=O)N[C@@H](Cc2ccccc2)[C@H](O)CNC2CCCCC2)cc(N2CCCCS2(=O)=O)c1
  IC50: 100 nM

## O=C(NCc1cccc(CN2CCOCC2)c1)c1cc(Br)cc(N2CCN(c3ccncc3)CC2)c1
  IC50: 860 nM

## O=C(Nc1ccc(N2CCCCC2)c(Cl)c1)c1ccco1
  IC50: 410 nM

## COc1cccc2c(Oc3ccccc3C)ccnc12
  IC50: 1230 nM
